The test system of test [1] is HCT116 MTAP-deleted cell lines. Kind of test: Cell viability assay (CellTiter-Glo, 7 days), HCT116 MTAP-deleted. To be noted: Homo sapiens, HCT-116; cell viability assay, HCT116 MTAP-deleted; class symbols; read-out: CC50. Type of test: cell-based. The method, boiled down:
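Read-out was CellTiter-Glo luminescence after a 7-day incubation (37 °C, 5% CO2) of HCT116 cells, MTAP-deleted or WT, on dose-response compound plates. CC50 values come from each line; where marked *, selectivity is overstated because poor solubility impaired the WT CC50 measurement.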

In test [2] the test system is Symmetric Di-methyl Arginine (SDMA) signal (PRMT5 inhibition) in HCT116 MTAP-deleted cells. Description: Symmetric di-methyl arginine image-based high content screen assay (SDMA assay), HCT116 MTAP-deleted. As to conditions: for EC50 selectivity: HCT116 WT vs HCT116 MTAP-deleted; for EC50: Homo sapiens, HCT-116, HCT116 MTAP-deleted, class symbols. Type of test: cell-based. The method, boiled down: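 Read-out is imaging of per-cell mean SDMA immunofluorescence (Alexa 488), with cells segmented by DAPI. Cells, MTAP-deleted or wild-type HCT116, were exposed to compound for 3 days at 37 °C before fixation. EC50 derived by 4-parameter non-linear logistic regression.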

Structures are written as SMILES.

The term CC50 denotes the concentration giving 50% cytotoxicity. By EC50 is commonly meant the concentration needed to bring the measured effect to its halfway point. A high value points to a less potent agent. Consider `[2H]C1([2H])CC[C@@H]2Oc3cc(C(F)(F)F)ccc3[C@@H]2N1C(=O)c1cc2c(cn1)nc(N)c1c(C)ncn12` [Ff-644, (4-amino-3-methylimidazo[1,5-a]pyrido[3,4-e]pyrazin-8-yl)((4aS,9bS)-7-(trifluoromethyl)-3,4,4a,9b-tetrahydrobenzofuro[3,2-b]pyridin-1(2H)-yl-2,2-d2)methanone], for which the 50% cytotoxic concentration (CC50) in test [1] was below 100 nM. In test [2], the EC50 selectivity is 92 and the EC50 is at most 1 nM.
In the same order, the values of `Cc1ncn2c1c(N)nc1cnc(C(=O)N3C[C@@H](F)C[C@@H]4Oc5cc(C(F)(F)F)ccc5[C@@H]43)cc12` [Ff-658, (4-amino-3-methylimidazo[1,5-a]pyrido[3,4-e]pyrazin-8-yl)((3S,4aS,9bS)-3-fluoro-7-(trifluoromethyl)-3,4,4a,9b-tetrahydrobenzofuro[3,2-b]pyridin-1(2H)-yl)methanone] are below 100 nM, 124 and 1 to 5 nM.
Consider `Cc1ncc2c(N)nc3ccc(C(=O)N4C[C@@H](F)C[C@@H]5Oc6cc(C(F)(F)F)ccc6[C@@H]54)cc3n12` [Ff-660, (4-amino-1-methylimidazo[1,5-a]quinoxalin-8-yl)((3S,4aS,9bS)-3-fluoro-7-(trifluoromethyl)-3,4,4a,9b-tetrahydrobenzofuro[3,2-b]pyridin-1(2H)-yl)methanone], for which the CC50 in test [1] is below 100 nM. In test [2], this compound showed an EC50 selectivity of 122 and a half-maximal effective concentration (EC50) of at most 1 nM.
With `Nc1nc2cc(F)c(C(=O)N3CCC[C@@H]4Oc5cc(-c6cnn(C(F)F)c6)ccc5[C@@H]43)cc2n2cncc12` [Ff-661, (4-amino-7-fluoroimidazo[1,5-a]quinoxalin-8-yl)((4aS,9bS)-7-(1-(difluoromethyl)-1H-pyrazol-4-yl)-3,4,4a,9b-tetrahydrobenzofuro[3,2-b]pyridin-1(2H)-yl)methanone], the 50% cytotoxic concentration (CC50) in test [1] is below 100 nM. In addition, in test [2], the EC50 selectivity worked out at 147 and the concentration giving a half-maximal response (EC50) is at most 1 nM.
In the same order, the values of `[2H]C([2H])([2H])c1ncn2c1c(N)nc1cnc(C(=O)N3CCC[C@@H]4Oc5cc(C(F)(F)F)ccc5[C@@H]43)cc12` [Ff-662, (4-amino-3-(methyl-d3)imidazo[1,5-a]pyrido[3,4-e]pyrazin-8-yl)((4aS,9bS)-7-(trifluoromethyl)-3,4,4a,9b-tetrahydrobenzofuro[3,2-b]pyridin-1(2H)-yl)methanone] are below 100 nM, 70 and 1 to 5 nM.
In the same order, the values of `Nc1nc2cc(F)c(C(=O)N3CCC[C@@H]4Oc5cc(S(F)(F)(F)(F)F)ccc5[C@@H]43)cc2n2cncc12` [Ff-663, (4-amino-7-fluoroimidazo[1,5-a]quinoxalin-8-yl)((4aS,9bS)-7-(pentafluoro-16-sulfaneyl)-3,4,4a,9b-tetrahydrobenzofuro[3,2-b]pyridin-1(2H)-yl)methanone] are below 100 nM, 23 and at most 1 nM.
In the same order, the values of `Nc1nc2ccc(C(=O)N3CCC[C@@H]4Oc5cc(S(F)(F)(F)(F)F)ccc5[C@@H]43)cc2n2cncc12` [Ff-664, (4-aminoimidazo[1,5-a]quinoxalin-8-yl)((4aS,9bS)-7-(pentafluoro-16-sulfaneyl)-3,4,4a,9b-tetrahydrobenzofuro[3,2-b]pyridin-1(2H)-yl)methanone] are below 100 nM, 79 and at most 1 nM.
On to `Cc1ncn2c1c(N)nc1cnc(C(=O)N3CCC[C@@H]4Oc5cc(S(F)(F)(F)(F)F)ccc5[C@@H]43)cc12` [Ff-665, (4-amino-3-methylimidazo[1,5-a]pyrido[3,4-e]pyrazin-8-yl)((4aS,9bS)-7-(pentafluoro-16-sulfaneyl)-3,4,4a,9b-tetrahydrobenzofuro[3,2-b]pyridin-1(2H)-yl)methanone], for which the CC50 in test [1] is below 100 nM. In test [2], the EC50 selectivity came out at 39 and the EC50 was at most 1 nM.
In the case of `Nc1nc2ccc(C(=O)N3C[C@@H](F)C[C@@H]4Oc5cc(OC(F)(F)F)ccc5[C@@H]43)cc2n2cncc12` [Ff-667, (4-aminoimidazo[1,5-a]quinoxalin-8-yl)((3S,4aS,9bS)-3-fluoro-7-(trifluoromethoxy)-3,4,4a,9b-tetrahydrobenzofuro[3,2-b]pyridin-1(2H)-yl)methanone], the CC50 in test [1] was below 100 nM. Besides, in test [2], the EC50 selectivity is 115 and the EC50 is at most 1 nM.
For `Nc1nc2cc(F)c(C(=O)N3CCC4(CCCc5ccccc54)C3)cc2n2cncc12` (stereo not drawn) [Ff-669, (4-amino-7-fluoroimidazo[1,5-a]quinoxalin-8-yl)(3,4-dihydro-2H-spiro[naphthalene-1,3′-pyrrolidin]-1′-yl)methanone], the CC50 in test [1] lay in the range of 100 to 1000 nM. In test [2], this compound came in with an EC50 selectivity of 485 and an EC50 of 1 to 5 nM.
In the same order, the values of `CN(C(=O)c1cc2c(cc1F)nc(N)c1cncn12)[C@@H]1COc2cc(C(F)(F)F)ncc21` [Ff-673, (S)-4-amino-7-fluoro-N-methyl-N-(6-(trifluoromethyl)-2,3-dihydrofuro[3,2-c]pyridin-3-yl)imidazo[1,5-a]quinoxaline-8-carboxamide] are below 100 nM, 197 and 1 to 5 nM.
In the same order, the values of `Cc1cc2nc(N)c3cncn3c2cc1C(=O)N(C)[C@@H]1COc2cc(C(F)(F)F)ccc21` [Ff-674, (S)-4-amino-N,7-dimethyl-N-(6-(trifluoromethyl)-2,3-dihydrobenzofuran-3-yl)imidazo[1,5-a]quinoxaline-8-carboxamide] are below 100 nM, 85 and at most 1 nM.
Take `Nc1nc2ccc(C(=O)N3CCC4(CC4)[C@@H]4Oc5cc(C(F)(F)F)ccc5[C@@H]43)cc2n2cncc12` [Ff-675, (4-aminoimidazo[1,5-a]quinoxalin-8-yl)((4aS,9bS)-7-(trifluoromethyl)-2,3,4a,9b-tetrahydro-1H-spiro[benzofuro[3,2-b]pyridine-4,1′-cyclopropan]-1-yl)methanone]: in test [1], the CC50 was below 100 nM. Besides, in test [2], the EC50 selectivity is on record as 107 and the EC50 is at most 1 nM.
In the same order, the values of `Cc1ncn2c1c(N)nc1cnc(C(=O)N3CCC4(CC4)[C@@H]4Oc5cc(C(F)(F)F)ccc5[C@@H]43)cc12` [Ff-678, (4-amino-3-methylimidazo[1,5-a]pyrido[3,4-e]pyrazin-8-yl)((4aS,9bS)-7-(trifluoromethyl)-2,3,4a,9b-tetrahydro-1H-spiro[benzofuro[3,2-b]pyridine-4,1′-cyclopropan]-1-yl)methanone] are below 100 nM, 263 and 1 to 5 nM.
In the same order, the values of `C[C@H](c1ncccn1)N(Cc1ccc(C(F)(F)F)cn1)C(=O)c1ccc2nc(N)n3cncc3c2c1` [Fg-1, (R)-5-amino-N-(1-(pyrimidin-2-yl)ethyl)-N-((5-(trifluoromethyl)pyridin-2-yl)methyl)imidazo[1,5-c]quinazoline-9-carboxamide] are 100 to 1000 nM, 50 and 1 to 5 nM.

These data come from US12448388B2, “PRMT5 inhibitors and uses thereof” (Gilead Sciences, Inc., priority 2023, dated 2025).
